# Experimental data taken from patent EP4562003B1, “NOVEL 7-SUBSTITUTED INDOLE SULFONAMIDE DERIVATIVES” (F. Hoffmann-La Roche AG, priority 2022, dated 2024).
# Target: human GPR17 short isoform (Homo sapiens, UniProt Q13304)
# Assay: GPR17 cAMP assay (TR-FRET cAMP quantification, antagonist mode)
# Type: cell-based
# Settings: CHO-K1 cells stably expressing human GPR17 short isoform; EC80 of agonist MDL29,951; forskolin 15µM; IBMX 0.5mM; 30 minutes at room temperature; read-out: hGPR17 cAMP IC50
# Procedure, shortened: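 CHO-K1 cells stably expressing untagged human GPR17 short isoform, 10'000 cells/well in HBSS/10mM HEPES/0.1% BSA pH 7.4. Compounds added with EC80 MDL29,951 plus 0.5mM IBMX, then 15µM forskolin; 30 min at room temperature. cAMP read by TR-FRET after 90 min lysis; normalized to reference antagonist maximal activity, sigmoidal fit.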
# Sequence of human GPR17 short isoform (Q13304 29-367): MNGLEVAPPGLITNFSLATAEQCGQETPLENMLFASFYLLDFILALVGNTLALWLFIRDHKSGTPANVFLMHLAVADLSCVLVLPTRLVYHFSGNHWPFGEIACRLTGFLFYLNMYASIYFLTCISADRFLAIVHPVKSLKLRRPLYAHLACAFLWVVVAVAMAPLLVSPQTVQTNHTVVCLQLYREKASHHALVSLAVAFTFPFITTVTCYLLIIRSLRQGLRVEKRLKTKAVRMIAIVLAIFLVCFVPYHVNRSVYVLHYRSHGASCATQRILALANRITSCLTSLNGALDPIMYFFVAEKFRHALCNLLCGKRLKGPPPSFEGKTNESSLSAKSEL
row,IC50,Compound
1,82 nM,"COc1nc(NS(=O)(=O)c2c[nH]c3c(-c4cnn(C)c4)c(Cl)ccc23)nc(OC)c1OC(F)F [Example 113, 6-chloro-N-[5-(difluoromethoxy)-4,6-dimethoxy-pyrimidin-2-yl]-7-(1-methylpyrazol-4-yl)-1H-indole-3-sulfonamide]"
2,55 nM,"COc1nc(NS(=O)(=O)c2c[nH]c3c(-c4cnn(C)c4)c(Cl)ccc23)nc(OC)c1CC(F)F [Example 114, 6-chloro-N-[5-(2,2-difluoroethyl)-4,6-dimethoxy-pyrimidin-2-yl]-7-(1-methylpyrazol-4-yl)-1H-indole-3-sulfonamide]"
3,40 nM,"COc1nc(NS(=O)(=O)c2c[nH]c3c(-c4cscn4)c(Cl)ccc23)nc(OC)c1OCC(F)F [Example 115, 6-chloro-N-[5-(2,2-difluoroethoxy)-4,6-dimethoxy-pyrimidin-2-yl]-7-thiazol-4-yl-1H-indole-3-sulfonamide]"
4,59 nM,"COc1nc(NS(=O)(=O)c2c[nH]c3c(-c4cnco4)c(Cl)ccc23)nc(OC)c1OCC(F)F [Example 116, 6-chloro-N-[5-(2,2-difluoroethoxy)-4,6-dimethoxy-pyrimidin-2-yl]-7-oxazol-5-yl-1H-indole-3-sulfonamide]"
5,106 nM,"COc1nc(NS(=O)(=O)c2c[nH]c3c(-c4cnco4)c(Cl)ccc23)nc(OC)c1OC(F)F [Example 117, 6-chloro-N-[5-(difluoromethoxy)-4,6-dimethoxy-pyrimidin-2-yl]-7-oxazol-5-yl-1H-indole-3-sulfonamide]"
6,63 nM,"COc1nc(NS(=O)(=O)c2c[nH]c3c(-c4cnoc4)c(Cl)ccc23)nc(OC)c1OCC(F)F [Example 118, 6-chloro-N-[5-(2,2-difluoroethoxy)-4,6-dimethoxy-pyrimidin-2-yl]-7-isoxazol-4-yl-1H-indole-3-sulfonamide]"
7,129 nM,"COc1nc(NS(=O)(=O)c2c[nH]c3c(-c4cnoc4)c(Cl)ccc23)nc(OC)c1OC(F)F [Example 119, 6-chloro-N-[5-(difluoromethoxy)-4,6-dimethoxy-pyrimidin-2-yl]-7-isoxazol-4-yl-1H-indole-3-sulfonamide]"
8,149 nM,"COc1nc(NS(=O)(=O)c2c[nH]c3c(-c4cscn4)c(Cl)ccc23)nc(OC)c1OC(F)F [Example 120, 6-chloro-N-[5-(difluoromethoxy)-4,6-dimethoxy-pyrimidin-2-yl]-7-thiazol-4-yl-1H-indole-3-sulfonamide]"
9,46 nM,"COc1nc(NS(=O)(=O)c2c[nH]c3c(-c4ncc5n4CCC5)cccc23)nc(OC)c1CC(F)F [Example 121, N-[5-(2,2-difluoroethyl)-4,6-dimethoxy-pyrimidin-2-yl]-7-(6,7-dihydro-5H-pyrrol[1,2-c]imidazol-3-yl)-1H-indole-3-sulfonamide]"
